In ChEMBL document CHEMBL1201862, “PubChem BioAssay data set” (2004):
Active and inactive are the calls of the source.

Key:
CAAX prenyl protease 2 [1] = target: T1, CAAX prenyl protease 2 (Homo sapiens, UniProt Q9Y256); test: human Rce1 protease inhibitors, dose response, biochemical, yeast membranes, quenched-peptide fluorescence, cherry-pick (AID 588849)
T1 sequence (Q9Y256 whole entry): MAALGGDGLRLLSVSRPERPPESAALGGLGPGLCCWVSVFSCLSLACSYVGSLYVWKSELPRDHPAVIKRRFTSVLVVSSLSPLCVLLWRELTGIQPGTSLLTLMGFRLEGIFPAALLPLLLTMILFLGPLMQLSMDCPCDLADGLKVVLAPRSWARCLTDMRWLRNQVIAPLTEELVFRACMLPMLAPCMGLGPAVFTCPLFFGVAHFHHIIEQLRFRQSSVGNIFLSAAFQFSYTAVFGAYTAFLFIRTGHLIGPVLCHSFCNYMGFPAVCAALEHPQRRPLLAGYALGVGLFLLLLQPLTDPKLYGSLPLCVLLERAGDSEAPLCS

[2] = target: Glyceraldehyde-3-phosphate dehydrogenase (Homo sapiens, UniProt P04406)
[3] = target: Alkaline phosphatase, placental type (Homo sapiens, UniProt P05187); test: PLAP enzyme inhibitors, confirmation, biochemical, luminescence (AID 1512); format: functional
[4] = target: T2, Alkaline phosphatase, tissue-nonspecific isozyme (Homo sapiens, UniProt P05186); test: human TNAP enzyme inhibitors, SAR follow-up, biochemical, luminescent, dose response (AID 1056)
T2 sequence (P05186 whole entry): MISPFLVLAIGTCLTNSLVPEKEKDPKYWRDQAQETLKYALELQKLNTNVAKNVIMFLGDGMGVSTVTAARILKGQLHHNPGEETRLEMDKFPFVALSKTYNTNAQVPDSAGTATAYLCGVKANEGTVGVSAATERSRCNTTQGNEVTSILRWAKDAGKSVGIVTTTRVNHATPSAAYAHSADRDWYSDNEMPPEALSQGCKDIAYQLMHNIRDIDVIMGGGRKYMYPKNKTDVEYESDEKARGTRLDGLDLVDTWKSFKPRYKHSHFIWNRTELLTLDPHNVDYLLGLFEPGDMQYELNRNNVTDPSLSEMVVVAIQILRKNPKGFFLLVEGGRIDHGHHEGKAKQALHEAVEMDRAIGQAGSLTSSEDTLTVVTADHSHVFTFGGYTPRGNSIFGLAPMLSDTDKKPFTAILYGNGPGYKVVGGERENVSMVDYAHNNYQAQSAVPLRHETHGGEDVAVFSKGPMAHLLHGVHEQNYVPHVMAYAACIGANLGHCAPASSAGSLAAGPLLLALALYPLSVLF

[5] = target: T3, Ubiquitin-conjugating enzyme E2 N (Homo sapiens, UniProt P61088); format: functional
T3 sequence (P61088 whole entry): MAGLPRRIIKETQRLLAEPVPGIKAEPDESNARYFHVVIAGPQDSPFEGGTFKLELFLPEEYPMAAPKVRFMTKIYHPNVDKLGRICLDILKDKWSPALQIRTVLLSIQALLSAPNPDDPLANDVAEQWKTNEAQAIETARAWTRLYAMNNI

[6] = target: T3, Ubiquitin-conjugating enzyme E2 N; format: functional; remark: listed apart in the source
Bcl-2-related protein A1 = target: T4, Bcl-2-related protein A1 (Mus musculus, UniProt Q07440); format: functional;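 further: confirmatory dose–response counterscreen on Bfl-1, used to check hits from a UBC13 polyubiquitin inhibitor campaign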
T4 sequence (Q07440 whole entry): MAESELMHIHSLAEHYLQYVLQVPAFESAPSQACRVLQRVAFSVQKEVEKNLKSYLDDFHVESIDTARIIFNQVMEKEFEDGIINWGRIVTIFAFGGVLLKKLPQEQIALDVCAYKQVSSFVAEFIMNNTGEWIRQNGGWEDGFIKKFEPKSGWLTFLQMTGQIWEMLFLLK

[7] = target: G-protein coupled receptor 35 (Homo sapiens, UniProt Q9HC97); test: GPR35 antagonists blocking zaprinast-driven arrestin recruitment, primary screen, imaging, U2OS, beta-arrestin-GFP, zaprinast agonist (AID 2058); format: functional;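 further: antagonist potency meaning inhibition of agonist-induced arrestin redistribution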
Large T antigen = Large T antigen (Simian virus 40, UniProt P03070); format: functional, Betapolyomavirus macacae;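 further: Confirmatory-stage PubChem screen for compounds that inhibit SV40 T antigen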
Prothrombin = Prothrombin (Bos taurus, UniProt P00735); test: thrombin inhibition, dose response, biochemical, fluorescence polarization, uHTS hits (AID 602369); format: functional
Streptokinase A = target: T5, Streptokinase A (Streptococcus pyogenes serotype M1, UniProt P10520); test: S. pyogenes streptokinase expression inhibitors, potency, dose response, plasminogen activation absorbance, OD405 (AID 1914); format: functional, Streptococcus pyogenes M1 GAS;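 further: secreted streptokinase activity via plasminogen activation per viability signal from cell pellet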
T5 sequence (P10520 whole entry): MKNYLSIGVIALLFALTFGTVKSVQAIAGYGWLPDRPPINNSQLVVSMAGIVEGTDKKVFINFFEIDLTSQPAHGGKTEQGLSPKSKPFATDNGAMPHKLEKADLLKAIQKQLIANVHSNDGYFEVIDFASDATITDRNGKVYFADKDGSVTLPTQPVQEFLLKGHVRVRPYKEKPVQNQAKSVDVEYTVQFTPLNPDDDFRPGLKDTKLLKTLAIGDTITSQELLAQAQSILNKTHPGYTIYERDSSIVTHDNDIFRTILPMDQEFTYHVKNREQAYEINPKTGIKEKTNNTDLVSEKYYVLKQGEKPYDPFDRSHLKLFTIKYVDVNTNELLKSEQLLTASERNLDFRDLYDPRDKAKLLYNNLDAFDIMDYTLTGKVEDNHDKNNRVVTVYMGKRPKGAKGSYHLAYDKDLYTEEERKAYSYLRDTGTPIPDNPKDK

[8] = target: T6, Bifunctional protein GlmU (Mycobacterium tuberculosis, UniProt P9WMN3); test: Inhibitors of Mycobacterial Glucosamine-1-phosphate acetyl transferase (GlmU). Secondary screen.; design: species or system Mycobacterium tuberculosis H37Rv
T6 sequence (P9WMN3 whole entry): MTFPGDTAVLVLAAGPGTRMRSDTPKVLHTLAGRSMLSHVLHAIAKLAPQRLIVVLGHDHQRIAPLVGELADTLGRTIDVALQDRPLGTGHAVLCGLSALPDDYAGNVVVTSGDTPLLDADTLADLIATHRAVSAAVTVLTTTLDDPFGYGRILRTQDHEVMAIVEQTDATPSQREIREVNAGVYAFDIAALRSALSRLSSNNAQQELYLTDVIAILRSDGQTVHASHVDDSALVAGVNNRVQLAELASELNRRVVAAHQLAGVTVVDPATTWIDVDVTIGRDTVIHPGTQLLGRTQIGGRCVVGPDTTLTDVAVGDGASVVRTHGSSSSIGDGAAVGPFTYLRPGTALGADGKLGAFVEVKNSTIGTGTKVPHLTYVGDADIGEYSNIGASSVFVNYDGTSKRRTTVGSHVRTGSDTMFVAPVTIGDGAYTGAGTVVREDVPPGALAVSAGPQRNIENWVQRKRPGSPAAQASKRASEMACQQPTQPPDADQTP

[9] = target: 72 kDa type IV collagenase (Homo sapiens, UniProt P08253); test: Dose Response validation of uHTS RPN11 inhibitor hits using a MMP-2 Fluorescence assay.; format: functional
Streptococcus = test: Group A Streptococcus viability loss, dose response, counter-screen for streptokinase expression inhibitor project, luminescence, BacTiterGlo (AID 1915); format: functional, organism-based;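 further: potency for reduction of bacterial viability or growth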
[10] = test system: Streptococcus sp. 'group A'; test: growth inhibition of control SK(-) GAS strain, dose response, counter-screen for streptokinase expression inhibitor project, luminescence, kanamycin, BacTiterGlo, confirmation (AID 1900); format: functional, organism-based
[11] = target: Dual specificity tyrosine-phosphorylation-regulated kinase 1A (Rattus norvegicus, UniProt Q63470); format: biochemical, Homo sapiens
[12] = target: Induced myeloid leukemia cell differentiation protein Mcl-1 (Homo sapiens, UniProt Q07820); format: functional
[13] = target: 26S proteasome non-ATPase regulatory subunit 14 (Homo sapiens, UniProt O00487); test: inhibition of proteasome subunit RPN11 – biochemical, fluorescence polarization, uHTS hits, confirmation (AID 602368); format: functional
CAAX prenyl protease 2 [14] = target: T7, CAAX prenyl protease 2 (Saccharomyces cerevisiae S288c, UniProt Q03530); format: biochemical
T7 sequence (Q03530 whole entry): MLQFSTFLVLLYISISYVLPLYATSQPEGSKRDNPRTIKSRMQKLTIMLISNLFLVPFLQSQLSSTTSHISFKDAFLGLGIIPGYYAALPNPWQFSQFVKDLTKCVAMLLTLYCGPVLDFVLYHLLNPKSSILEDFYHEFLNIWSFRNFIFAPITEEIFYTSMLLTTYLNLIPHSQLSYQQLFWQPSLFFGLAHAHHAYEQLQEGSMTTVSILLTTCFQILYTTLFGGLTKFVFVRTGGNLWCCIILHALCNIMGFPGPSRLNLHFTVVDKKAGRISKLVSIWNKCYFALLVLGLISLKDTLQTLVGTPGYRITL

[15] = inhibitors of Vif binding to APOBEC3G peptide, primary screen, biochemical, TR-FRET, GST-Vif 1-94, biotin-A3G peptide, dose response retest (AID 1117319); format: functional;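 further: TR-FRET signal of purified GST-Vif binding a biotinylated A3G peptide; inhibitors lower the FRET signal by blocking Vif and A3G binding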
[16] = Vero cell cytotoxicity, dose response, cytotoxicity control for Vif-APOBEC3G degradation inhibitor project, Vero cells (AID 1117358); format: functional; conditions: Human immunodeficiency virus 1, Vero

Chain of Alkaline phosphatase, placental type (P05187 whole entry): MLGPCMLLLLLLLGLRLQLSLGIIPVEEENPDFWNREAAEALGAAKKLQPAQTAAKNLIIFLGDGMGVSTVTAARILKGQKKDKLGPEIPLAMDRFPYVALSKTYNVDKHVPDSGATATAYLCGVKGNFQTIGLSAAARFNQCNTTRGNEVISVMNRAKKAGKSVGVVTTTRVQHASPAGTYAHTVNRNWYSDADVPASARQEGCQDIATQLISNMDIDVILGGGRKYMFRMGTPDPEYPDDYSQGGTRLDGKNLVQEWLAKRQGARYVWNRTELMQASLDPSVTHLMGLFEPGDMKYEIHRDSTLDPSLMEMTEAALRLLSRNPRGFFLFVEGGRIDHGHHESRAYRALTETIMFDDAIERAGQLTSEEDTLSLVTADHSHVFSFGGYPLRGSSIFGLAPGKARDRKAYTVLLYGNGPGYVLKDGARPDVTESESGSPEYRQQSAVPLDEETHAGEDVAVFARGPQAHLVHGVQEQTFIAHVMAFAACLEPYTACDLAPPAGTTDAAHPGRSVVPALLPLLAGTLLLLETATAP
Chain of Glyceraldehyde-3-phosphate dehydrogenase (P04406 whole entry): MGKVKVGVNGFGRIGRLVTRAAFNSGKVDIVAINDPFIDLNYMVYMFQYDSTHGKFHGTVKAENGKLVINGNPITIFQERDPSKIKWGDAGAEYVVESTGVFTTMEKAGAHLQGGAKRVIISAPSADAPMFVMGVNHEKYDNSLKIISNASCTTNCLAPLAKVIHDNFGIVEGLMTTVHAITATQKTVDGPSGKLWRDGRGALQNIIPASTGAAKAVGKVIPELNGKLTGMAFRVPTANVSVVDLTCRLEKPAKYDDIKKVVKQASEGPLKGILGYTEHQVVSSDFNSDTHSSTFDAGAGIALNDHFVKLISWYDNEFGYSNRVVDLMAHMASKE
Chain of G-protein coupled receptor 35 (Q9HC97 whole entry): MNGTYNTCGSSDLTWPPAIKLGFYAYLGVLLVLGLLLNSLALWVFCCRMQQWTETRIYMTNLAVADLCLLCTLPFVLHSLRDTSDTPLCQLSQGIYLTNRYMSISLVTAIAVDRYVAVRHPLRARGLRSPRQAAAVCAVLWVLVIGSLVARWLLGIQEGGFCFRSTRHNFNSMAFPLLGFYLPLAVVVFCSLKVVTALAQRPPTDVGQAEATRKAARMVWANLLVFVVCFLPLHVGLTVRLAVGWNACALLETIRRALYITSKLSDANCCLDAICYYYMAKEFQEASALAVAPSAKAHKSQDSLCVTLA
Chain of Induced myeloid leukemia cell differentiation protein Mcl-1 (Q07820 whole entry): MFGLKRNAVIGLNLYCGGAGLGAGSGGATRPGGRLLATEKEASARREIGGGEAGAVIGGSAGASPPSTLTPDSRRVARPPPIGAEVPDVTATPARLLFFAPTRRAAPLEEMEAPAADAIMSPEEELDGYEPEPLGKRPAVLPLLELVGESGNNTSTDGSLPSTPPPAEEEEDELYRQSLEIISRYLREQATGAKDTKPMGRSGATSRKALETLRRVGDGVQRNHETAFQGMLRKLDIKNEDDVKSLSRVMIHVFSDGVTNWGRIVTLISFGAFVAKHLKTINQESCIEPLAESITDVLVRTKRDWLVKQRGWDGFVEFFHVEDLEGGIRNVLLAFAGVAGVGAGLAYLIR
Chain of Large T antigen (P03070 whole entry): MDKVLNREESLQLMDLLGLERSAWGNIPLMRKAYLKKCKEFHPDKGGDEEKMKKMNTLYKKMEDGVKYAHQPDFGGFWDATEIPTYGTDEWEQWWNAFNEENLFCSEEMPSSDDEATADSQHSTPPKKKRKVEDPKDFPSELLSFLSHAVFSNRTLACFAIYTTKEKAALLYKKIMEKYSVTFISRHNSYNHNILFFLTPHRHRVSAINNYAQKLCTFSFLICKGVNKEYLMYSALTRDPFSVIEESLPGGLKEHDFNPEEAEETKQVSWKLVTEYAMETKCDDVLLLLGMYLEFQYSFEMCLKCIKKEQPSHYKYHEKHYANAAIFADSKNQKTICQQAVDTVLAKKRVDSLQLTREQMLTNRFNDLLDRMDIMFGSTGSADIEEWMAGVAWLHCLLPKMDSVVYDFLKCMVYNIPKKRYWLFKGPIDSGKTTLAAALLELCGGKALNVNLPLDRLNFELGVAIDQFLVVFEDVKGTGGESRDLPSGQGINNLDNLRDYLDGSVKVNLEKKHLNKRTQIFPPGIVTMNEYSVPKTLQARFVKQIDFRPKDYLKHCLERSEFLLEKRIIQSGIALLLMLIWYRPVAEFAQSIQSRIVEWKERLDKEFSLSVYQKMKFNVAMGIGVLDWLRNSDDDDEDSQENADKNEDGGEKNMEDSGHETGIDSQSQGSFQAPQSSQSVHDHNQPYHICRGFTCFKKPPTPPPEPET
Chain of 72 kDa type IV collagenase (P08253 whole entry): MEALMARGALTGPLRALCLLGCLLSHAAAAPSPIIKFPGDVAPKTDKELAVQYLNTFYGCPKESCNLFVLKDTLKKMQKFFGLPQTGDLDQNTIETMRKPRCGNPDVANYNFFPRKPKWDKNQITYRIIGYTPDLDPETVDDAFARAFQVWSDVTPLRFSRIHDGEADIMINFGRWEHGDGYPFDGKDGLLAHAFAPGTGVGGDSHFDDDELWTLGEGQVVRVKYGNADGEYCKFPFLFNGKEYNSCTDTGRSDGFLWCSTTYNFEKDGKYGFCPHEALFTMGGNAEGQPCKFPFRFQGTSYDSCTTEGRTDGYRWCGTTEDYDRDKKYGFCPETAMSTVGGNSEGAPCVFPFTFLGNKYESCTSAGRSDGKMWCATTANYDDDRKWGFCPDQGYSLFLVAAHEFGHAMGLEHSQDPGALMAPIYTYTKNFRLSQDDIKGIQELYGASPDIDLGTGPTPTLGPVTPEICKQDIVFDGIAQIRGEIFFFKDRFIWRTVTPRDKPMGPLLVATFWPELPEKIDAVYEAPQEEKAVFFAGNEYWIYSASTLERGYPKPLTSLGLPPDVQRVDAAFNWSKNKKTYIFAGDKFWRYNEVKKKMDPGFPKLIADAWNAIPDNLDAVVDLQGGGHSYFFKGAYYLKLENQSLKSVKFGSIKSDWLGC
Chain of 26S proteasome non-ATPase regulatory subunit 14 (O00487 whole entry): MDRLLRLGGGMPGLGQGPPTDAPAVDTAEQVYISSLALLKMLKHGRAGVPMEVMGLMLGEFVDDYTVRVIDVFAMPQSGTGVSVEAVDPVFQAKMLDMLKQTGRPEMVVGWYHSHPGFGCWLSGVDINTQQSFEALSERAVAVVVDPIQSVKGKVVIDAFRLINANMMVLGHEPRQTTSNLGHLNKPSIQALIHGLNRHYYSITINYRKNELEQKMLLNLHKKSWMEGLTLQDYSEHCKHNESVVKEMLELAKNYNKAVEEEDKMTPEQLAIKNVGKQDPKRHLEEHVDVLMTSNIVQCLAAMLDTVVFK

SMILES: CCSc1nc(O)c2c(n1)N=C1CC(C)(C)CC(O)=C1C2c1ccccn1 (stereo unspecified)
- AC50 (CAAX prenyl protease 2 [1]): 9.79 µM (active)

SMILES: COc1ccc(Cc2nc3c4cnn(C)c4ncn3n2)cc1
- IC50 [2]: > 100 µM (not active)
- IC50 [3]: > 100 µM (inactive)
- IC50 [4]: > 100 µM (inactive)

SMILES: O=C1C(Cc2cnc[nH]2)NC(=S)N1c1ccccc1 (stereo unspecified)
- IC50 [5]: 8.14 µM (active)
- IC50 [6]: 4 µM (active)
- IC50 (Bcl-2-related protein A1): > 20 µM (inactive)

SMILES: Cc1cc(SCC(=O)NC(=O)c2cccn2C)nc2ccccc12
- IC50 [5]: 17.4 µM (active)
- IC50 [6]: > 20 µM (inactive)
- IC50 (Bcl-2-related protein A1): > 20 µM (inactive)

SMILES: N=C1/C(=C\c2ccc(-c3cccc(C(=O)O)c3)o2)C(=O)N=C2SC=C(c3ccccc3)N12
- IC50 [7]: 2.29 µM (active)
- IC50 (Large T antigen): 92.2 µM (active)
- IC50 (Prothrombin): 15.8 µM (active)
- EC50 (Streptokinase A): > 150 µM (not active)
- IC50 [8]: 129 µM (active)
- IC50 [9]: 9.07 µM (active)
- EC50 (Streptococcus): 8.79 µM (active)
- EC50 [10]: 743 nM (active)
- AC50 [11]: 2.19 µM (active)
- IC50 [12]: 1.55 µM (active)
- IC50 [13]: 7.84 µM (active)

SMILES: Cc1ccc(C)c(S(=O)(=O)c2c[nH]c(=S)[nH]c2=O)c1
- IC50 [5]: 14.3 µM (active)
- IC50 [6]: > 20 µM (inactive)
- IC50 (Bcl-2-related protein A1): > 20 µM (inactive)

SMILES: CC(=O)Oc1ccc(C(=O)Nc2ccc(S(=O)(=O)NCC3CCCO3)cc2)cc1 (stereo unspecified)
- AC50 (CAAX prenyl protease 2 [14]): 68.7 µM (active)

SMILES: CCn1nc(C)c(/C=N/NC(=O)c2ccc3c(c2)c(C)c(C)n3Cc2ccccc2)c1C
- IC50 [3]: > 100 µM (inactive)

SMILES: CC(C)c1c(C(=O)N/N=C/c2ccsc2)nnn1-c1nonc1N
- AC50 (CAAX prenyl protease 2 [14]): 0.343 µM (active)

SMILES: COc1ccc(OC)c(S(=O)(=O)Nc2cnc3ccccc3c2)c1
- IC50 [2]: > 100 µM (not active)
- IC50 [3]: > 100 µM (inactive)
- IC50 [15]: > 100 µM (active)
- CC50 [16]: > 40 µM (active)
